Results on 22 compounds are retold here after patent US8853203B2, “Diazepinone derivatives” (Novartis AG, priority 2012, dated 2014).

One test has as its target human mGluR1 (Homo sapiens (Human), UniProt Q13255). The test is described as follows: mGluR1 antagonism, L-glutamate induced intracellular calcium increase (FLIPR) in CHO cells stably expressing human mGluR1. As to conditions: for IC50: L-glutamate induced intracellular calcium, CHO cells expressing human mGluR1, FLIPR. The format is cell-based. From the text: Activity of compounds of the present invention with respect to mGluR1 antagonism was examined by an assay based on measurements of L-glutamate induced intracellular calcium increases using a 96 well plate-based Fluorometric Imaging Plate Reader (FLIPR), and CHO cells stably expressing human mGluR1. L-glutamate induced robust calcium responses via human mGluR1 in a concentration-dependent manner and in the low micromolar range. The table below represents IC50 values of the inhibition of the glutamate-induced elevation of the intracellular calcium concentration.

For the next test, the target named is human mGluR5a receptors (Homo sapiens (Human), UniProt P41594). Description: inhibition of glutamate-induced elevation of intracellular calcium in L(tk-) cells expressing human mGluR5a. The format is cell-based. As to conditions: for IC50: glutamate-induced intracellular calcium elevation, L(tk-) cells expressing human mGluR5a, read-out: mGluR5 IC50. From the text:
Activity of compounds of the present invention was examined by determination to what extent the glutamate-induced elevation of the intracellular calcium concentration in L(tk-) cells expressing human mGluR5a receptors (see L. P. Daggett et al., Neuropharm. Vol. 34, pages 871-886, 1995) is inhibited by utilizing methods as described e.g. by L. P. Daggett et al., Neuropharm. Vol. 34, pages 871-886 (1995) and P. J. Flor et al., J. Neurochem. Vol. 67, pages 58-63 (1996).

Chain of human mGluR5a receptors (P41594 other isoform, or with tags, fused parts or gaps): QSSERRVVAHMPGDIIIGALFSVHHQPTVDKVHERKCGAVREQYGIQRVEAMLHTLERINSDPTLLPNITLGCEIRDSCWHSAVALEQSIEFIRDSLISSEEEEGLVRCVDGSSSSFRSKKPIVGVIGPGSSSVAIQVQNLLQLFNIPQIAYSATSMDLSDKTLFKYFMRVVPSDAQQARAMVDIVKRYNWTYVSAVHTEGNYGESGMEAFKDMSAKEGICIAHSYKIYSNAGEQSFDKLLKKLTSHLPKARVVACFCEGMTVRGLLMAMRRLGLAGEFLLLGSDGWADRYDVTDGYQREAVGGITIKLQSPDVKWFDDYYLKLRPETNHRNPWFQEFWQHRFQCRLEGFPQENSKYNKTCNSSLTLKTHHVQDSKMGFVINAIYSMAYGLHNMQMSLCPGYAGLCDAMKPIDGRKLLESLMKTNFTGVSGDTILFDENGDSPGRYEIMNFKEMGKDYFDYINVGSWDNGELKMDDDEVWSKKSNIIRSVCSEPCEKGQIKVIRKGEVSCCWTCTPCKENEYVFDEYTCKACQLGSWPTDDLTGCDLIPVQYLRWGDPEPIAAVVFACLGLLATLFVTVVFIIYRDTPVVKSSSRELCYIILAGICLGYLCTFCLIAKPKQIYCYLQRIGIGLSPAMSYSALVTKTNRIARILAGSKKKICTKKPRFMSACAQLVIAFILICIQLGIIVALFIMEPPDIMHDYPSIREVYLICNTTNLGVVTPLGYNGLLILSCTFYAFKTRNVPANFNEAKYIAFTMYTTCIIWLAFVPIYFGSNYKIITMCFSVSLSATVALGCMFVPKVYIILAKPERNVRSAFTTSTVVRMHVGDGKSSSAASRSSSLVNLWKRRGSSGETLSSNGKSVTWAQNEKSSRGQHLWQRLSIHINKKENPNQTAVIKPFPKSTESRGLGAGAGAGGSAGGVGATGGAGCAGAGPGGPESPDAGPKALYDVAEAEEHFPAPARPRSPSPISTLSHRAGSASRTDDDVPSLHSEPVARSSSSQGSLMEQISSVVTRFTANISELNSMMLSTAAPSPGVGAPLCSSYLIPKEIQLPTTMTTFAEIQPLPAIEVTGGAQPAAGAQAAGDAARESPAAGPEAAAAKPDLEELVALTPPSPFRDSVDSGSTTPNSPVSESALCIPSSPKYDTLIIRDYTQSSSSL
Chain of human mGluR1 (Q13255 19-1194): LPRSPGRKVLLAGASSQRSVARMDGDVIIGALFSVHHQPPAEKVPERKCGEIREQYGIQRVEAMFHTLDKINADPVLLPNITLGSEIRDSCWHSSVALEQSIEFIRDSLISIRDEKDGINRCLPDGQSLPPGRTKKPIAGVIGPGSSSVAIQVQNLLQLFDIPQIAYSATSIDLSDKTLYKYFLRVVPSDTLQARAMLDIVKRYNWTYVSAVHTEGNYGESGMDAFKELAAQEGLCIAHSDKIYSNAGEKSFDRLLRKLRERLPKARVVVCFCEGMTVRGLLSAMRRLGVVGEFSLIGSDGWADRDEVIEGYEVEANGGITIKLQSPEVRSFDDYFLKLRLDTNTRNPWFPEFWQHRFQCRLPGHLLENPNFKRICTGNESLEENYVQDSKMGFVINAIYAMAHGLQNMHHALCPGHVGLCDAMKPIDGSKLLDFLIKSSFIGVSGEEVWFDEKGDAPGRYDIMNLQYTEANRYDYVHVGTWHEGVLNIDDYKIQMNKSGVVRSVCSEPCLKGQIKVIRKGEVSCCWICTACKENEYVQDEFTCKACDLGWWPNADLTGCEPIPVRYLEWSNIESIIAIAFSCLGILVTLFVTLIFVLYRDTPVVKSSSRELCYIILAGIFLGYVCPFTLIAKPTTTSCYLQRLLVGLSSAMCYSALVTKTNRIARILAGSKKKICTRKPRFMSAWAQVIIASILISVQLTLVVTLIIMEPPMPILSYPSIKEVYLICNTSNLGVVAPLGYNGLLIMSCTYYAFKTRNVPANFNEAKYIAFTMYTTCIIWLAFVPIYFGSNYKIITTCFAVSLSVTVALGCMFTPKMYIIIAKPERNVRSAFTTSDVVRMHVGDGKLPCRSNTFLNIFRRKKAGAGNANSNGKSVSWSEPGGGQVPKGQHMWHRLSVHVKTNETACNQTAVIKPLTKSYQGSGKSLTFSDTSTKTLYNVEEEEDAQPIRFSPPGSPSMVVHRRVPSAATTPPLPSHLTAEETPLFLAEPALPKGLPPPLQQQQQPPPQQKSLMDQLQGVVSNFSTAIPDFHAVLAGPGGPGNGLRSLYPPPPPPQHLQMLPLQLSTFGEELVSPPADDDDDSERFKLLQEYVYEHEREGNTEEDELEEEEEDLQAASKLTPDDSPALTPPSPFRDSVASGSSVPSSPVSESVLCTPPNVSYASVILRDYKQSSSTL

Consider `O=C1CN=C(c2cccs2)C=C2c3cccc(F)c3CCN12` [Example 19, 9-fluoro-2-(thiophen-2-yl)-7,8-dihydro-[1,4]diazepino[7,1-a]isoquinolin-5(4H)-one], for which the IC50 was determined as 800 nM on human mGluR1 and 4500 nM at human mGluR5a receptors.
Regarding `COc1cccc(C2=NCC(=O)N3CCc4c(OC)cc(Cl)cc4C3=C2)c1` [Example 14, 11-chloro-9-methoxy-2-(3-methoxyphenyl)-7,8-dihydro-[1,4]diazepino[7,1-a]isoquinolin-5(4H)-one], the figures for the IC50 on human mGluR1 and at human mGluR5a receptors were > 10000 nM and 550 nM, respectively.
Take `CC(=O)c1cccc2c1CCN1C(=O)CN=C(n3cnc(C4CCC4)c3)C=C21` [Example 117, 9-acetyl-2-(4-cyclobutyl-1H-imidazol-1-yl)-7,8-dihydro-[1,4]diazepino[7,1-a]isoquinolin-5(4H)-one]: the IC50 on human mGluR1 stood at 660 nM; on human mGluR5a receptors, 35 nM.
As to `C=C(C)c1cccc2c1CCN1C(=O)CN=C(n3cnc([C@@H](C)OC)c3)C=C21` [Example 118, (R)-2-(4-(1-methoxyethyl)-1H-imidazol-1-yl)-9-(prop-1-en-2-yl)-7,8-dihydro-[1,4]diazepino[7,1-a]isoquinolin-5(4H)-one], the 50% inhibitory concentration (IC50) on human mGluR1 is > 10000 nM; on human mGluR5a receptors, 18 nM.
In the case of `COc1cccc2c1CCN1C(=O)CN=C(c3cnc4c(c3)OCCN4C)C=C21` [Example 36a, 9-methoxy-2-(4-methyl-3,4-dihydro-2H-pyrido[3,2-b][1,4]oxazin-7-yl)-7,8-dihydro-[1,4]diazepino[7,1-a]isoquinolin-5(4H)-one], on human mGluR1 (CHO), the inhibition at 10 µM was found to be 1%. In addition, the IC50 at human mGluR5a receptors worked out at 5500 nM.
Turning to `COc1cccc(C2=NCC(=O)N3CCc4c(Cl)cccc4C3=C2)c1` [Example 3, 9-chloro-2-(3-methoxyphenyl)-7,8-dihydro-[1,4]diazepino[7,1-a]isoquinolin-5(4H)-one], the IC50 at human mGluR1 amounted to 585 nM; on human mGluR5a receptors it was 220 nM.
For the compound `O=C1CN=C(n2cnc(C3CC3)c2)C=C2c3cccc(-c4cnco4)c3CCN12` [Example 109, 2-(4-cyclopropyl-1H-imidazol-1-yl)-9-(oxazol-5-yl)-7,8-dihydro-[1,4]diazepino[7,1-a]isoquinolin-5(4H)-one], the half-inhibitory concentration (IC50) was 1800 nM at human mGluR1 and 10 nM at human mGluR5a receptors.
Take `COCc1cn(C2=NCC(=O)N3CCc4c(cccc4C4CC4)C3=C2)cn1` [Example 96-1, 9-cyclopropyl-2-(4-(methoxymethyl)-1H-imidazol-1-yl)-7,8-dihydro-[1,4]diazepino[7,1-a]isoquinolin-5(4H)-one]: the IC50 was found to be 540 nM at human mGluR1 and 6 nM on human mGluR5a receptors.
`CC(C)c1cn(C2=NCC(=O)N3CCc4c(cccc4-c4cnn(C)c4)C3=C2)cn1` [Example 72, 2-(4-isopropyl-1H-imidazol-1-yl)-9-(1-methyl-1H-pyrazol-4-yl)-7,8-dihydro-[1,4]diazepino[7,1-a]isoquinolin-5(4H)-one]: the figures for the IC50 on human mGluR1 and at human mGluR5a receptors were > 10000 nM and 275 nM, respectively.
For `COc1cc(C2=NCC(=O)N3CCc4c(OC)cccc4C3=C2)ccn1` [Example 8, 9-methoxy-2-(2-methoxypyridin-4-yl)-7,8-dihydro-[1,4]diazepino[7,1-a]isoquinolin-5(4H)-one], the IC50 on human mGluR1 came out at 4900 nM; on human mGluR5a receptors it was 22 nM.
For `Cn1cc(C2=NCC(=O)N3CCc4c(cccc4N4CCOCC4)C3=C2)cn1` [Example 25, 2-(1-methyl-1H-pyrazol-4-yl)-9-morpholino-7,8-dihydro-[1,4]diazepino[7,1-a]isoquinolin-5(4H)-one], the IC50 is > 10000 nM at human mGluR1 and 66 nM on human mGluR5a receptors.
For `COc1cccc2c1CCN1C(=O)CN=C(c3ccnc(N(C)C)c3)C=C21` [Example 21, 2-(2-(dimethylamino)pyridin-4-yl)-9-methoxy-7,8-dihydro-[1,4]diazepino[7,1-a]isoquinolin-5(4H)-one] the same measures were 5200 nM and 3900 nM.
In the case of `COc1cccc(C2=NCC(=O)N3CCc4c(ccc(OC)c4OC)C3=C2)c1` [Example 59, 9,10-dimethoxy-2-(3-methoxyphenyl)-7,8-dihydro-[1,4]diazepino[7,1-a]isoquinolin-5(4H)-one], the IC50 at human mGluR1 amounted to 6500 nM. Further, the inhibition at 10 µM on human mGluR5a receptors (LTK, read-out: mGluR5 % inhibition at 10 μM) was found to be 23%.
On to `O=C1CN=C(n2cnc(COC(F)(F)F)c2)C=C2c3cccc(C4CC4)c3CCN12` [Example 131, 9-cyclopropyl-2-(4-((trifluoromethoxy)methyl)-1H-imidazol-1-yl)-7,8-dihydro-[1,4]diazepino[7,1-a]isoquinolin-5(4H)-one], for which the figures for the IC50 on human mGluR1 and on human mGluR5a receptors were > 2000 nM and 46 nM, respectively.
For `O=C1CN=C(n2cnc(C3CC3)n2)C=C2c3ccnc(C4CC4)c3CCN12` [Example 110b, 9-cyclopropyl-2-(3-cyclopropyl-1H-1,2,4-triazol-1-yl)-7,8-dihydro-[1,4]diazepino[7,1-a][2,6]naphthyridin-5(4H)-one] the same measures were > 10000 nM and 758 nM.
As for `O=C1CN=C(n2cnc(C3CC3)n2)C=C2c3cccc(-c4ccc(F)nc4)c3CCN12` [Example 95-2, 2-(3-cyclopropyl-1H-1,2,4-triazol-1-yl)-9-(6-fluoropyridin-3-yl)-7,8-dihydro-[1,4]diazepino[7,1-a]isoquinolin-5(4H)-one], the IC50 on human mGluR1 is > 10000 nM; on human mGluR5a receptors, 11 nM.
Regarding `COc1cccc(C2=NCC(=O)N3CCc4c(cccc4C4CCCO4)C3=C2)c1` (centres unmarked) [Example 57, 2-(3-methoxyphenyl)-9-(tetrahydrofuran-2-yl)-7,8-dihydro-[1,4]diazepino[7,1-a]isoquinolin-5(4H)-one], the IC50 on human mGluR1 came out at 4500 nM; on human mGluR5a receptors it was 14 nM.
As to `Cn1cnc(C2=NCC(=O)N3CCc4c(I)cccc4C3=C2)c1` [Example 36, 9-iodo-2-(1-methyl-1H-imidazol-4-yl)-7,8-dihydro-[1,4]diazepino[7,1-a]isoquinolin-5(4H)-one], the IC50 on human mGluR1 is 6900 nM; at human mGluR5a receptors, 3800 nM.
Turning to `COCc1cn(C2=NCC(=O)N3CCc4c(C5CC5)cccc4C3C2)cn1` (centres unmarked) [Example 143, 9-cyclopropyl-2-(4-(methoxymethyl)-1H-imidazol-1-yl)-1,7,8,12b-tetrahydro-[1,4]diazepino[7,1-a]isoquinolin-5(4H)-one], the IC50 on human mGluR1 was > 10000 nM; on human mGluR5a receptors it was 282 nM.
For `Cn1ccc(C2=NCC(=O)N3CCc4c(CO)cccc4C3=C2)n1` [Example 45, 9-(hydroxymethyl)-2-(1-methyl-1H-pyrazol-3-yl)-7,8-dihydro-[1,4]diazepino[7,1-a]isoquinolin-5(4H)-one] the same measures were > 10000 nM and 700 nM.
`O=C1CN=C(n2cnc(C3CC3)c2)C=C2c3cccc(-c4cncs4)c3CCN12` [Example 88d, 2-(4-cyclopropyl-1H-imidazol-1-yl)-9-(thiazol-5-yl)-7,8-dihydro-[1,4]diazepino[7,1-a]isoquinolin-5(4H)-one]: the results for the IC50 on human mGluR1 and at human mGluR5a receptors were > 2000 nM and 31 nM, respectively.
Take `COCc1cn(C2=NCC(=O)N3CCc4c(C5CC5)ccc(F)c4C3=C2)cn1` [Example 99i, 9-cyclopropyl-12-fluoro-2-(4-(methoxymethyl)-1H-imidazol-1-yl)-7,8-dihydro-[1,4]diazepino[7,1-a]isoquinolin-5(4H)-one]: the figures for the IC50 on human mGluR1 and on human mGluR5a receptors were 687 nM and 16 nM, respectively.
